Test results reported in the NIST ThermoML archive (doi:10.1021/je8009978).
Numbers after ± are expanded uncertainties.

Experiments:
[1] = refractive index (Na D-line) (dimensionless); conditions: 298.15 K; 101.33 kPa; Liquid; Standard Abbe refractometry
[2] = Liquid

- refractive index [1]: 1.3939 ± 0.0004
- mass density ([2]; 298.15 K, 101.33 kPa, Vibrating tube method): 797.6 ± 0.3 kg/m3
- Normal boiling temperature ([2]; Closed cell (Static) method): 107.83 ± 0.2 °C
Compound: CC(C)CO [2-methyl-1-propanol]
